In patent publication US7332279B2 (Glycozym APS, priority 1999, dated 2008):

What was measured:
Type in all cases: biochemical
β4Gal-T2 = target: T1, β4Gal-T2 (Homo sapiens, UniProt O60909); assay: Galactosyltransferase assay, recombinant β4Gal-T2, saccharide acceptors
T1 construct: The kinetic properties were determined with partially purified, secreted forms of the enzymes; made in house; host or cells: baculovirus; insect cells (Sf9 / High Five)
T1 sequence (O60909 37-372 limits assumed): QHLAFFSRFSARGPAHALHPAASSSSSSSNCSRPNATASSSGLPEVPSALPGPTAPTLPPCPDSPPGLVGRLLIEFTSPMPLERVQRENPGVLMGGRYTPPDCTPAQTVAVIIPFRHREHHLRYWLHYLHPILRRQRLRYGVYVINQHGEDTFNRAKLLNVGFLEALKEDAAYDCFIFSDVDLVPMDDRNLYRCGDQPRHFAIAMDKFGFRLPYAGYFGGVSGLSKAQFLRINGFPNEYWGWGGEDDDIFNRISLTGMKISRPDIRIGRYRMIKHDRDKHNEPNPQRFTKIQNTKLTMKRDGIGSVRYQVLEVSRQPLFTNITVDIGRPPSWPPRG
Protocol: (§1) An expression construct (pAcGP67-β3Gal-T5-sol) designed to exclude the hydrophobic transmembrane segment and to encode amino acid residues 25-310, was prepared by PCR using P1 genomic DNA, and the primer pair EBER1300 sol (5′-[…]) (SEQ ID NO:3) and EBER1310 (5′-[…]) (SEQ ID NO:4) (FIG. 1), which included BamHI restriction sites. PCR product was cloned into the BamHI site of pAcGP67B (Pharmingen). An expression construct (pVL-β3Gal-T5-full) designed to encode the full coding sequence (from first ATG, FIG. 1) was prepared by PCR with P1 genomic DNA using the primer pair EBER1309 (5′-[…]) (SEQ ID NO:5) and EBER1310. This PCR product was cloned into the BamHI site of pVL1193 (Pharmingen). Both soluble and full length constructs were fully sequenced to confirm fidelity. Plasmids pAcGP67-β3GalT5-sol and pVL-β3Gal-T5-full were co-transfected with Baculo-Gold™ DNA (Pharmingen) as described previously (Bennett, E. P., Hassan, H. and Clausen, H. cDNA cloning and expression of a novel human UDP-N-acetyl-alpha-D-galactosamine. Polypeptide N-acetyl-galactosaminyl-transferase, GalNAc-T3. J. Biol. Chem. 271:17006-17012, 1996). Recombinant Baculo-virus were obtained after two successive amplifications in Sf9 cells grown in serum-containing medium, and titers of virus were estimated by titration in 24-well plates with monitoring of enzyme activities. […] Polypeptide N-acetyl-galactosaminyl-transferase, GalNAc-T3. J. Biol. Chem. 271:17006-17012, 1996). For large scale expression amplified virus was used to infect High Five™ cells grown in serum-free media (Invitrogen) in upright roller bottles shaking at 140 rpm and 27° C.
(§2) The kinetic properties were determined with partially purified, secreted forms of the enzymes. Semipurification of enzymes from serum-free medium of infected High-Five™ cells was performed by sequential Amberlite, DEAE-Sephacel and 5-Sepharose chromatography as described previously (Wandall, H. H., Hassan, H., Mirgorodskaya, E., et al. Substrate specificities of three. members of the human UDP-N-acetyl-alpha-D-galactosamine:Polypeptide Nacetylgalactosaminyltransferase family, GalNAc-T1, -T2, and -T3. J. Biol. Chem. 272:23503-23514, 1997). Comparisons of enzymes were performed relatively to the activity obtained with βGlcNAc-Bz1 (Tables II and III). Full length enzymes were assayed with 1% Triton CF54 homogenates of washed cells. Enzyme assays were performed in 50 μl total reaction mixtures containing 25 mM Cacodylate (pH 7.5), 10 mM MnCl2, 0.25% Triton X-100, 100 μM UDP-[^14C]-Gal (2,600 cpm/nmol) (Amersham), and varying concentrations of acceptor substrates (Sigma) (see Table I for structures). Reaction products were quantified by Dowex-1 chromatography. […] The transfer of Gal was evaluated after acid precipitation by filtration through Whatman GF/C glass fibre filters. […] Assays with glycolipid acceptors were conducted as previously described (Holmes, E. H. Characterization and membrane organization of beta 1-3- and beta 1-4-galactosyltransferases from human colonic adenocarcinoma cell lines Cob 205 and SW403: basis for preferential synthesis of type 1 chain lacto-series carbohydrate structures. Arch Biochem Biophys 270:630-646, 1989) in reaction mixtures containing 2.5 μmol HEPES buffer, pH 7.2, μmol MnCl2, 100 μg taurodeoxycholate or Triton CF-54, 20 μg acceptor glycolipid, 15 nmol UDP-[^14C]-galactose (13,000 cpm/nmol) and enzyme in a total volume of 100 μl. Conditions for incubation and product isolation were as previously described (Id.).

β4Gal-T3 = target: T2, β4Gal-T3 (Homo sapiens, UniProt O60512); assay: Galactosyltransferase assay, recombinant β4Gal-T3, saccharide acceptors
T2 construct: The kinetic properties were determined with partially purified, secreted forms of the enzymes; made in house; host or cells: baculovirus; insect cells (Sf9 / High Five)
Protocol: as §1, §2

β3Gal-T1 = target: T3, β3Gal-T1 (Homo sapiens, UniProt Q9Y5Z6); assay: Activity of full coding construct of β3Gal-T1 expressed in Sf9 cells (Triton CF54 homogenates or media); details: 60 hrs post-infection, acceptor 20 mM
T3 construct: Full length enzymes were assayed with 1% Triton CF54 homogenates of washed cells; made in house; host or cells: Sf9 cells, baculovirus
T3 sequence (Q9Y5Z6 1-326): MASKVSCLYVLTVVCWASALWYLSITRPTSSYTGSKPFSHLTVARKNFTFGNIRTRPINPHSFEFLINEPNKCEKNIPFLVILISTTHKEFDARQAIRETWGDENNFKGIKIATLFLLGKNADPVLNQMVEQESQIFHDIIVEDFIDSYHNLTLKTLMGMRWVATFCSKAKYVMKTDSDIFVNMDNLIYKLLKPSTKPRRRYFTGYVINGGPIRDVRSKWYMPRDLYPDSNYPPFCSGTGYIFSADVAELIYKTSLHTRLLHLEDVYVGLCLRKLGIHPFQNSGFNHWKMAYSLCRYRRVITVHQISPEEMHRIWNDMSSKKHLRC

T2 sequence (O60512 32-393 limits assumed): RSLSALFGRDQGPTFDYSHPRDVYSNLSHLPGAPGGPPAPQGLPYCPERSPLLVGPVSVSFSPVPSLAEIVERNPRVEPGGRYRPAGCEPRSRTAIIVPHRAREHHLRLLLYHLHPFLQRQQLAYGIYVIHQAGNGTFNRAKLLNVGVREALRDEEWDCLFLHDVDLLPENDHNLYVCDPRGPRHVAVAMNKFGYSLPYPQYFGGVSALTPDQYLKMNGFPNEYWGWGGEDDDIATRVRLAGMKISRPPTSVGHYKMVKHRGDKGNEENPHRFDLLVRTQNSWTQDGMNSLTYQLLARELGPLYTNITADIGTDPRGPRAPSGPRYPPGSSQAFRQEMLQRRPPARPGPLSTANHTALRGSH

β4Gal-T2 activity, acceptor 0.2 mM (β4Gal-T2)	β4Gal-T2 ratio to value with βGlcNAc-Bzl, acceptor 0.2 mM (β4Gal-T2)	β4Gal-T3 activity with βGlcNAc-Bzl (β4Gal-T3; β-D-GlcNAc-Bzl at 2 mM)	β3Gal-T1 full coding construct activity, Cells (β3Gal-T1; 1% Triton CF54 cell homogenate)	β3Gal-T1 full coding construct activity, Media (β3Gal-T1; media)	β4Gal-T2 activity with βGlcNAc-Bzl (β4Gal-T2; β-D-GlcNAc-Bzl at 0.25 mM)	β4Gal-T3 activity, acceptor 0.2 mM (β4Gal-T3; 0.2 mM)	β4Gal-T3 ratio to value with βGlcNAc-Bzl, acceptor 0.2 mM (β4Gal-T3; 0.2 mM)	β4Gal-T3 activity, acceptor 2 mM (β4Gal-T3; 2 mM)	β4Gal-T3 ratio to value with βGlcNAc-Bzl, acceptor 2 mM (β4Gal-T3; 2 mM)	β4Gal-T2 activity, acceptor 2 mM (β4Gal-T2; 2 mM)	β4Gal-T2 ratio to value with βGlcNAc-Bzl, acceptor 2 mM (β4Gal-T2; 2 mM)	SMILES
0.03 nmol/min	(1.0)											CC(=O)N[C@H]1[C@H](OC[C@H]2O[C@H](Oc3ccc([N+](=O)[O-])cc3)[C@H](NC(C)=O)[C@@H](O[C@@H]3O[C@H](CO)[C@H](O)[C@H](O)[C@H]3O)[C@H]2O)O[C@H](CO)[C@@H](O)[C@@H]1O [βGlcNAc(1,6)[βGal(1,3)]αGalNAc-p-Nph]
		0.03 nmol/min	7.2 nmol/min/mL	0.2 nmol/min/mL	0.03 nmol/min							CC(=O)N[C@H]1[C@H](OCc2ccccc2)O[C@H](CO)[C@@H](O)[C@@H]1O [β-D-GlcNAc-Bzl]
0.2 nmol/min	(0.6)					0.1 nmol/min	(0.3)	0.03 nmol/min	(1.0)	0.01 nmol/min	(0.3)	CC(=O)NC1C(OC2C(O)C(CO)OC(Oc3ccc([N+](=O)[O-])cc3)C2NC(C)=O)OC(CO)C(O)C1O [β-D-GlcNAc-(1–3)-α-D-GalNAc-p-Nph]
